The target of one test is Cytochrome P450 1A2 (Homo sapiens, UniProt P05177). Kind of test: Inhibition of CYP1A2 (unknown origin). Type of test: ADME.
The target of the next test is Adenosine receptor A2a (Homo sapiens, UniProt P29274). Kind of test: Displacement of [3 H]2-[p-(2-carboxyethyl)phenyl-ethylamino]-5'-N-ethylcarboxamidoadenosine from recombinant human adenosine receptor A2A expressed in HEK293 cell membranes at 10 uM after 60 mins by liquid scintillation counting method relative to control.
Adenosine receptor A2a, sequence (P29274 whole entry): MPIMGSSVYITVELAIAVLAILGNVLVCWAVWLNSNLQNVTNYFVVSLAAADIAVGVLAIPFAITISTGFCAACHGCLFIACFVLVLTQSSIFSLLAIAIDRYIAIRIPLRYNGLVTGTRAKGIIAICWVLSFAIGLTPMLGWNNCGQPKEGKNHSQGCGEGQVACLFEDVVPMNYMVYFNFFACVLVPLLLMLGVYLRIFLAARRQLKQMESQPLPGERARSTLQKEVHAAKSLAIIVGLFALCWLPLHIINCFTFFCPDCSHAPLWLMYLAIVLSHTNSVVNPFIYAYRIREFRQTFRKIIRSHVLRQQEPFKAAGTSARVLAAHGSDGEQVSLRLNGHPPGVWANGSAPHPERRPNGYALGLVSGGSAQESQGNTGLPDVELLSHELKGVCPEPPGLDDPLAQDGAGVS
Test [1] has as its target 5-hydroxytryptamine receptor 2A (Homo sapiens, UniProt P28223). The test is described as follows: Antagonist activity at human 5-HT2AR expressed in Flp-In HEK cells assessed as inhibition of serotonin induced calcium mobilization at 10 uM preincubated for 5 to 10 mins followed by serotonin addition by Fluo-4 dye based FLIPR assay relative to control. The conditions noted are these: HEK293. The format is functional, cell-based. Background: A change in cytosolic calcium serves as a functional read-out for many receptors and channels.

Molecules are shown by their SMILES.

Cytochrome P450 1A2, sequence (P05177 whole entry): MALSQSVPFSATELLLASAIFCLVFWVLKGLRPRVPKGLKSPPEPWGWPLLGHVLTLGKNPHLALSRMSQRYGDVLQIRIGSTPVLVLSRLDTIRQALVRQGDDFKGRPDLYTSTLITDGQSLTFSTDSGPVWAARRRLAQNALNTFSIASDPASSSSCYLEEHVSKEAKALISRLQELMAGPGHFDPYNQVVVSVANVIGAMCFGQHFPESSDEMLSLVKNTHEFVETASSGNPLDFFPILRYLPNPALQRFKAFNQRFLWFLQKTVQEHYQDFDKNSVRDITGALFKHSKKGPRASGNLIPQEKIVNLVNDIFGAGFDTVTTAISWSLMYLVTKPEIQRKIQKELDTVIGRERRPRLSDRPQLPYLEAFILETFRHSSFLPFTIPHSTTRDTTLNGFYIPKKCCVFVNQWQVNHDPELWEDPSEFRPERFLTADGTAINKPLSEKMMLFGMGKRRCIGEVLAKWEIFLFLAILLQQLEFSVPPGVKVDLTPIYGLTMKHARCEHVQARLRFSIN
5-hydroxytryptamine receptor 2A, sequence (P28223 whole entry): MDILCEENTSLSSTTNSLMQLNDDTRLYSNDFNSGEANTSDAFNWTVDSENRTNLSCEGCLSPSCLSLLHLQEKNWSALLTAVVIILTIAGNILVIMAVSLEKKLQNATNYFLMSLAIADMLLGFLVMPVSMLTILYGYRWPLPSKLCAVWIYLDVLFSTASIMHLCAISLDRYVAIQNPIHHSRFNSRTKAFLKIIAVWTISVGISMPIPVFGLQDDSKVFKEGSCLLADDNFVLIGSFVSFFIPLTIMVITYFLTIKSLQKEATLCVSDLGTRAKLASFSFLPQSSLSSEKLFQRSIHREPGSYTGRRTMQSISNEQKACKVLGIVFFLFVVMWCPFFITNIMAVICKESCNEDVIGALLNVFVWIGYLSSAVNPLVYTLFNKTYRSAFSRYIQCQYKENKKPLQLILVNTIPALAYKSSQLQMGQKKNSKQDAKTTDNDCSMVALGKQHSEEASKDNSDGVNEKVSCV

For orientation: IC50 means the concentration that gives 50% inhibition. A lower IC50 goes with inhibition by little substance. As for `CNC(=O)[C@@]12C[C@@H]1[C@@H](n1cnc3c(NC(C4CC4)C4CC4)nc(Cl)nc31)[C@H](O)[C@@H]2O`, the IC50 at Cytochrome P450 1A2 was above 30 µM. What is called inhibition is the percentage by which the read-out fell short of the control. In the case of `COC(=O)[C@@]12C[C@@H]1[C@@H](n1cnc3c(NC(C4CC4)C4CC4)nc(Cl)nc31)[C@H](O)[C@@H]2O`, the inhibition at Adenosine receptor A2a amounted to 33%. Take `CCOC(=O)[C@@]12C[C@@H]1[C@@H](n1cnc3c(NC(C4CC4)C4CC4)nc(Cl)nc31)[C@H](O)[C@@H]2O`: the inhibition in test [1] was above 10%.

The values above are taken from ChEMBL document CHEMBL3862033 (J Med Chem, 2016).
